Test in all cases: inhibition of tumour cell growth, NCI panel, 48 h
The subject of test [1] is HT29 colon.
The test system of test [2] is SF-295 CNS.
In test [3] the test system is NCI-H23 lung.
For test [4], the system named is COLO 205 colon.
For test [5], the system named is 786-0 renal.
Test [6] has as its system SW-620 colon.
For test [7], the system named is UACC-62 melanoma.
For test [8], the system named is PC-3 prostate.
Test [9] concerns HCT-15 colon.
For test [10], the system named is ACHN renal.

Experimental findings from PubChem BioAssay (NCI) are described below.

Values joined by “and” are separate entries in the source; they are usually repeats but may differ in a detail not shown here. Equal entries are not always repeated.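 Five compound concentrations were applied to cells in 96-well plates for 48 hours; endpoints were derived by simple linear interpolation of the resulting dose-response curve. GI50 is the concentration that inhibits growth by half. The concentration for full growth arrest is given as TGI.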 Where only a bound is given, the exact number is not on record here.

Regarding `O=C(O)C1CC=CCC1C(=O)Nc1cccc(O)c1` (stereo not given), the TGI in [1], in [2], in [3], in test [4], in test [5] and in test [6] was greater than 100 µM throughout. For the same compound, the TGI in [7], in test [8], in [9] and in [10] was greater than 100 µM in each case.
Turning to `c1ccc(CN2CCc3[nH]c4ccccc4c3C2)cc1`, the TGI in [1] is 36.4 µM; in [2] it was 65.9 µM; in [3] it was greater than 92.6 µM; in test [4], 31.9 µM; in test [5], 44.5 µM; in test [6], 50 µM. The TGI in test [7] was 66.9 µM; in [8], greater than 100 µM; in [9], 62.6 µM; in [10], 99.8 µM.
For the compound `Cc1c(Cl)c(=O)oc2cc(OC/C=C3\CCC(=O)O3)ccc12`, the GI50 in test [1] is 17.2 µM; in test [2], 62.9 µM; in test [3], 17.4 µM; in [4], 12.9 µM; in [5], 12.8 µM; in [6] it was 13.5 µM. In addition, the GI50 in test [7] was 16.8 µM; in test [8], 14.2 µM; in test [9], 15.3 µM; in test [10], 4.22 µM. Also, the TGI in [1] is 43.3 µM; in [2] it was greater than 100 µM; in [3], 32.7 µM; in test [4] it was 30.1 µM; in [5], 29.3 µM; in [6], 35.6 µM. Further, the TGI in test [7] is 33.9 µM; in test [8], 38.8 µM; in test [9], 30 µM; in test [10] it was 17.9 µM.
Regarding `O=C1Nc2cc(-c3cccc(O)c3)ccc2/C1=C/c1ccc[nH]1`, the GI50 is 4.71 µM in test [1]; 2.34 µM in [2]; 0.182 µM in test [3]; 4.37 µM in [4]; 2.22 µM in [5]; 1.17 µM in [6]. Also, the GI50 is 2.63 µM in test [7], 2.53 µM in test [8], 0.271 µM in test [9] and 0.515 µM in test [10]. The TGI was determined as 30.6 µM in [1]; 5.23 µM in test [2]; 4.56 µM in [3]; 28.6 µM in test [4]; 7.32 µM in test [5]; 8.27 µM in test [6]. The TGI turned out to be 8.89 µM in test [7], 10.7 µM in test [8], 12.7 µM in test [9] and 5.5 µM in test [10].
As for `CC(C)c1ccc(C2NC(=S)NC3=C2c2ccccc2C3=O)cc1` (stereo not given), the TGI in [1] is greater than 59 µM; in [2], greater than 52.4 µM; in test [3] it was greater than 59.2 µM; in test [4], greater than 59.2 µM; in test [5], greater than 60 µM; in [6] it was greater than 78.2 µM. The TGI in test [7] was greater than 52.8 µM; in [8], 23.5 µM; in test [9], greater than 51.9 µM; in [10] it was greater than 55.9 µM.
Turning to `CCC1C(C)C=NN1c1nc(N)nc(C(C#N)=Nc2ccc(N(C)C)cc2)n1` (stereo not given), the GI50 is 16.5 µM in test [1]; 8.96 µM in test [2]; 13.8 µM in test [3]; 17.4 µM in test [5]; 12.1 µM in [6]; 14.6 µM in [7]. For the same compound, the GI50 in test [8] was 2.53 µM; in test [9] it was 15.6 µM; in test [10], 9.17 µM. The TGI in [1] was greater than 50 µM; in test [2], 16.1 µM; in [3], greater than 50 µM; in test [5], greater than 50 µM; in [6], 26.8 µM; in [7], greater than 50 µM. Besides, the TGI in [8] is 10.1 µM; in [9], greater than 50 µM; in [10] it was 17.1 µM.
For `O=[N+]([O-])c1cccc(-c2nc(-c3ccc(Cl)cc3Cl)cn2-c2ccccc2)c1`, the GI50 was 1.25 µM in [1]; 0.452 µM in test [2]; 5.15 µM in [3]; 0.485 µM in test [4]; 0.995 µM in test [5]; 0.617 µM in test [6]. The GI50 in test [7] is 6.73 µM; in [8] it was 0.391 µM; in test [9], 1.13 µM; in test [10], 1.3 µM. For the same compound, the TGI was 5.42 µM in [1]; 0.976 µM in test [2]; greater than 27.1 µM in test [3]; 0.987 µM in [4]; 2.88 µM in test [5]; 1.22 µM in test [6]. Moreover, the TGI was greater than 33.3 µM in [7], 10.8 µM in test [8], greater than 23.2 µM in [9] and 5.42 µM in [10].
Regarding `CN1CCN(c2ccc(OC(F)(F)F)c(Nc3ncc4c(n3)-c3c(c(C(N)=O)nn3CCO)CC4)c2)CC1`, the GI50 in [1] is 0.0349 µM and 0.0348 µM; in test [2], 0.0575 µM and 0.244 µM; in test [3], 0.0397 µM and 0.0732 µM; in test [4], 0.0255 µM and 0.0275 µM; in test [5], 0.428 µM and 0.466 µM; in test [6] it was 0.0273 µM and 0.0316 µM. Moreover, the GI50 in [7] is 0.0454 µM and 0.123 µM; in test [8] it was 0.0663 µM and 0.0986 µM; in test [9], 0.213 µM and 0.266 µM; in test [10], 0.43 µM and 0.814 µM. Further, the TGI in test [1] is greater than 82.9 µM; in test [2], 18.6 µM and > 10 µM; in [3] it was 17.6 µM and > 10 µM; in test [5], 32.4 µM and > 10 µM; in test [6], greater than 84.3 µM; in test [7], 21.1 µM and > 4.66 µM. Also, the TGI is greater than 82.4 µM in test [8]; greater than 100 µM in test [9]; 20.2 µM and > 10 µM in [10].
Take `O=C1CC[C@H](N2Cc3c(OCc4ccc(CN5CCOCC5)cc4)cccc3C2=O)C(=O)N1`: the GI50 in [1], in test [2], in test [4], in test [5], in [6] and in test [7] was greater than 100 µM each time. The GI50 in [8], in [9] and in test [10] was greater than 100 µM in each case. Further, the TGI in test [1], in test [2], in test [4], in [5], in [6] and in test [7] was greater than 100 µM each time. Moreover, the TGI in test [8], in [9] and in test [10] was greater than 100 µM each time.
